This passage reports pH in water and safe daily use results from patent US20250205162A1, “SYSTEMS AND METHODS FOR SMALL MOLECULE ENCAPSULATION” (Tecton Group, LLC, priority 2022, published 2025).

One data set can be described thus: pH in water. The data set is classed as physicochemical. The note with it: aqueous solution.
The conditions of data set [1]: humans; cited from earlier work.

As for nicotinamide riboside [NR], in the data set “pH in water”, the pH in water is 4.0. For `Cn1c(=O)c2c(n(C)c1=O)n(C)c(=O)n2C` [TH, theacrine], in data set [1], the safe daily use result is “up to 300 mg/day”. `C[C@@H](O)CC(=O)OC(CO)CO` [KM, 1,3 Dihydroxypropan-2-yl (R)-3-hydroxybutanoate] yielded a pH in water in the data set “pH in water” of 4.5.
